The results in this text go back to patent US20060121136A1, “Hypotensive agent and method for producing same” (National Institute of Advanced Industrial Science and …, priority 2003, published 2006).

This test deals with T1, angiotensin-converting enzyme (ACE) (Oryctolagus cuniculus, UniProt P12822).
T1 construct: purchased Wako Jun-yaku A6778 (Lot No.)
T1 sequence (P12822 34-1310): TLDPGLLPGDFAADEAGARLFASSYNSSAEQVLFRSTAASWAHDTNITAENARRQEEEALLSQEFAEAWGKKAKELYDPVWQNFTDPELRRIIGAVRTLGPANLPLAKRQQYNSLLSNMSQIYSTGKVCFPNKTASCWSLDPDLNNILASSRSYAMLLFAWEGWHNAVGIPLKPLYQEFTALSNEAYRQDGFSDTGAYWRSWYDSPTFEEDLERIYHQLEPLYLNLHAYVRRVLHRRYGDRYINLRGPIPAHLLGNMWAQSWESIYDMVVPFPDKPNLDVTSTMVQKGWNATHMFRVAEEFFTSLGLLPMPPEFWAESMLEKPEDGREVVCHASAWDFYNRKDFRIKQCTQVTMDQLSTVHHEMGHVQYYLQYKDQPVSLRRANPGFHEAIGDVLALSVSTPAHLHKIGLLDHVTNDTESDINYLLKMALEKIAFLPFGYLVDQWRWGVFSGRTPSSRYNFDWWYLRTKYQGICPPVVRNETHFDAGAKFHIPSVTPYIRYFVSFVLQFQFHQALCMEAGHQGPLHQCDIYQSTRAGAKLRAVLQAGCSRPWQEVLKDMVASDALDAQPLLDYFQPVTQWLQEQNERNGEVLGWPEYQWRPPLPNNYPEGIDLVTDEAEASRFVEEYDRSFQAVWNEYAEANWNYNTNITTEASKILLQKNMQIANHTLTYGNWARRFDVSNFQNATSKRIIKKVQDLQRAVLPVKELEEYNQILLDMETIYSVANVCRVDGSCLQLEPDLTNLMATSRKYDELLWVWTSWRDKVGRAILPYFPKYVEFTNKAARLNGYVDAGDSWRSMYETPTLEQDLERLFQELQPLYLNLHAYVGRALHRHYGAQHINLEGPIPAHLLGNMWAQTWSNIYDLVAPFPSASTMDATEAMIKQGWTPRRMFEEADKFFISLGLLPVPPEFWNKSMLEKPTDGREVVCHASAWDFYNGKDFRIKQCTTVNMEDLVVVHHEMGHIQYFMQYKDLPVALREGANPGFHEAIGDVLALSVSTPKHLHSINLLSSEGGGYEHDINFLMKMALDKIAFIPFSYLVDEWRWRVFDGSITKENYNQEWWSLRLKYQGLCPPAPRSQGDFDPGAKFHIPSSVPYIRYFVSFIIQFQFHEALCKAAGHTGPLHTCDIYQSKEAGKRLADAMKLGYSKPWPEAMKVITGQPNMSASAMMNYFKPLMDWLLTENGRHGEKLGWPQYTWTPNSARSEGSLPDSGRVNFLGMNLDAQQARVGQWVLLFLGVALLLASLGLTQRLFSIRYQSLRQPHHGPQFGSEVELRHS
The experiment in a line: ACE inhibiting activity (Hip-His-Leu substrate, liberated hippuric acid OD at 228 nm). In kind it is biochemical. As for the experimental part:
The blood pressure-lowering activity of the oligosaccharide for use in the invention was investigated by determining the angiotensin-converting enzyme inhibiting activity (hereinafter referred to as ACE inhibiting activity) thereof. Concretely, various oligosaccharides mentioned below were analyzed for their ACE inhibiting activity. • 1) Glc(α1-1α)Glc: α,α-trehalose (sold by Wako Jun-yaku, Lot No. KP7915), • 2) Glc(α1-1β)Glc: α,β-trehalose (sold by Sigma, Lot No. T-0299), • 3) Glc(β1-1β)Glc: β,β-trehalose (sold by Sigma, Lot No. T-0917), • 4) Glc(α1-2)Glc: kojibiose (sold by Sigma, Lot No. T-0299), • 5) Glc(β1-2)Glc: sophorose (sold by Sigma, Lot No. S-1404), • 6) Glc(α1-3)Glc: nigerose (sold by Wako Jun-yaku, Lot No. 142-06433), • 7) Glc(β1-3)Glc: laminaribiose (sold by Sigma, Lot No. L-6384), • 8) Glc(α1-4)Glc: maltose (sold by Sigma, Lot No. M-9171), • 9) Glc(β1-4)Glc: cellobiose (sold by Nacalai, Lot No. 075-11), • 10) Glc(α1-6)Glc: isomaltose (sold by Sigma, Lot No. I-7253), • 11) Glc(β1-6)Glc: gentiobiose (sold by Sigma, Lot No. G-3000), • 12) Gal(α1-6)Glc: melibiose (sold by Sigma, Lot No. M-5500), • 13) Gal(β1-6)Gal (sold by Sigma, Lot No. G-5643), • 14) Glc(α1-6) glucitol:Glc(α1-6) mannitol (=50:50) (sold by Sigma, Lot No. P8583-500), • 15) Glc(α1-6)Fru: palatinose (sold by Sigma, Lot No. M-5500), • 16) Fru(β2-1α)Glc: sucrose (sold by Wako Jun-yaku, Lot No. 192-00012), and • 17) Glc(α1-3) Fru(β2-1α) Glc: melezitose (sold by Nacalai, Lot No. 214-01). In these, Glu means glucose; Gal means galactose; and Fru means fructose.
Each oligosaccharide as above was dissolved in water (MilliQ water). Because of the solubility thereof, the sample was dissolved to have a final concentration of 10, 30 or 100 mM at the time when its activity is determined (Table 1). Next, with cooling with ice, 30 μl of the sample (Nos. 1 to 17 in Table 1) was put into a test tube. Then, 100 μl of ACE (sold by Wako Jun-yaku, Lot No. A6778) in a borate buffer (60 mU/ml) (pH 8.3) was added to each sample. As a blank, one also added with 250 μl of 1 N HCl serving as a reaction stopper was prepared. These were pre-incubated at 37° C. for 5 minutes. Further, 250 μl of a borate buffer (pH 8.3) containing as a substrate, 7.6 mM Hip-His-Leu (sold by Sigma, Lot No. 012-02195) and 608 mM sodium chloride (sold by Wako Jun-yaku, Lot No. 191-01665) was added. These were reacted at 37° C. for 30 minutes. Then, 250 μl of 1 NHCl was added and stirred, and the reaction was stopped. Then, 1.5 ml of ethyl acetate (sold by Wako Jun-yaku, Lot No. 051-00356) was added, and the thus-liberated hippuric acid was extracted out. After thus extracted, it was centrifuged at 3000 rpm for 10 minutes, and 0.5 ml of the supernatant (ethyl acetate layer)was recovered. The thus-recovered ethyl acetate was removed under reduced pressure, and 4 ml of water was added and stirred. The absorption of the dissolved hippuric acid at 228 nm (OD) was measured. The borate buffer used herein was prepared from Na2B4O7 (sold by Wako Jun-yaku, Lot No. 194-01415) and H3BO3 (sold by Wako Jun-yaku, Lot No. 012-02195) so that its pH could be 8.3. The data obtained were computed according to the calculation formula mentioned below, and the ACE inhibiting activity (%) of each sample was obtained as in Table 1 and FIG. 1. ACE Inhibiting Activity (%)={[(solvent OD−solvent blank OD)−(sample OD−sample blank OD)]/(solvent OD−solvent blank OD)}×100.

Where [1] appears, read: final sample concentration 100 mM.
Setting [2] is: final sample concentration 30 mM.
Setting [3] is: final sample concentration 10 mM.

What is called inhibition is the relative decrease from the control value, in per cent. In the case of `OC[C@H]1O[C@H](O[C@H]2[C@H](O)[C@@H](O)C(O)O[C@@H]2CO)[C@H](O)[C@@H](O)[C@@H]1O` (mixture of isomers) [compound 8, maltose], the inhibition at 100000 µM under setting [1] amounted to 6.3%.
As for `OC[C@H]1O[C@H](O[C@H]2O[C@H](CO)[C@@H](O)[C@H](O)[C@H]2O)[C@H](O)[C@@H](O)[C@@H]1O` [compound 1, α,α-trehalose], the “ACE Inhibiting Activity (%)” value under setting [2] was 1.2%.
Same read-out and setting: for `OC[C@H]1O[C@@H](O[C@H]2O[C@H](CO)[C@@H](O)[C@H](O)[C@H]2O)[C@H](O)[C@@H](O)[C@@H]1O` [compound 2, α,β-trehalose] the value was 1.6%.
Still for that read-out and setting: the value for `OC[C@H]1O[C@@H](O[C@@H]2O[C@H](CO)[C@@H](O)[C@H](O)[C@H]2O)[C@H](O)[C@@H](O)[C@@H]1O` [compound 3, β,β-trehalose] was 0.6%.
As for `OC[C@H]1O[C@H](O[C@H]2C(O)O[C@H](CO)[C@@H](O)[C@@H]2O)[C@H](O)[C@@H](O)[C@@H]1O` (stereo partly shown) [compound 4, kojibiose], the “ACE Inhibiting Activity (%)” value under setting [3] was 1.0%.
In the case of `OC[C@H]1O[C@@H](O[C@H]2C(O)O[C@H](CO)[C@@H](O)[C@@H]2O)[C@H](O)[C@@H](O)[C@@H]1O` (stereo partly shown) [compound 5, sophorose], the “ACE Inhibiting Activity (%)” value under setting [2] is reported as 3.0%.
Consider `OC[C@H]1O[C@H](O[C@H]2[C@H](O)[C@@H](CO)OC(O)[C@@H]2O)[C@H](O)[C@@H](O)[C@@H]1O` (stereo partly shown) [compound 6, nigerose], for which the “ACE Inhibiting Activity (%)” value under setting [3] is listed as 0.4%.
For the compound `OC[C@H]1O[C@@H](O[C@H]2[C@H](O)[C@@H](CO)OC(O)[C@@H]2O)[C@H](O)[C@@H](O)[C@@H]1O` (stereo partly shown) [compound 7, laminaribiose], the “ACE Inhibiting Activity (%)” value under setting [2] is listed as 0.8%.
Consider `O=C[C@H](O)[C@@H](O)[C@H](O[C@@H]1O[C@H](CO)[C@@H](O)[C@H](O)[C@H]1O)[C@H](O)CO` [compound 9, cellobiose], for which, under setting [2], the inhibition at 30000 µM was -1%.
For `OC[C@H]1O[C@H](OC[C@H]2OC(O)[C@H](O)[C@@H](O)[C@@H]2O)[C@H](O)[C@@H](O)[C@@H]1O` (stereo partly shown) [compound 10, isomaltose], under setting [1], the “ACE Inhibiting Activity (%)” value is listed as 27.2%.
Still for that read-out and setting: for `OC[C@H]1O[C@H](OCC2O[C@@H](O)[C@H](O)[C@@H](O)[C@@H]2O)[C@H](O)[C@@H](O)[C@H]1O` (stereo partly shown) [compound 12, melibiose] the value was 40.7%; for `OC[C@H]1O[C@@H](OC[C@H]2OC(O)[C@H](O)[C@@H](O)[C@H]2O)[C@H](O)[C@@H](O)[C@H]1O` (stereo partly drawn) [compound 13, Gal(β1-6)Gal], 54.9%.
Turning to `OC[C@H]1O[C@H](OC[C@H]2OC(O)(CO)[C@@H](O)[C@@H]2O)[C@H](O)[C@@H](O)[C@@H]1O` (stereo partly shown) [compound 15, palatinose], the “ACE Inhibiting Activity (%)” value under setting [1] came out at 93.5%.
Consider `OC[C@H]1O[C@@](CO)(O[C@H]2O[C@H](CO)[C@@H](O)[C@H](O)[C@H]2O)[C@@H](O)[C@@H]1O` [compound 16, sucrose], for which the inhibition at 30000 µM under setting [2] turned out to be 6.6%.
Turning to `OC[C@H]1O[C@@](CO)(O[C@H]2O[C@H](CO)[C@@H](O)[C@H](O)[C@H]2O)[C@@H](O[C@H]2O[C@H](CO)[C@@H](O)[C@H](O)[C@H]2O)[C@@H]1O` [compound 17, melezitose], the inhibition at 30000 µM under setting [2] is 5.5%.
Consider gentiobiose [compound 11], for which, under setting [1], the “ACE Inhibiting Activity (%)” value is on record as 31.5%.
